Test results from patent US8299111B2, “Compounds which modulate the CB2 receptor” (Boehringer Ingelheim International GmbH, priority 2006, dated 2012).

The compounds below were run against T1, human CB2R (Homo sapiens, UniProt P34972) (assay: CB2R mediated modulation of cAMP synthesis). Conditions: found through the use of the above described assays (binding and cAMP); CHO cells expressing human CB2R, forskolin-stimulated cAMP.
T1 construct: host or cells: CHO cells
Format: cell-based
Method: B. CB2R Mediated Modulation of cAMP Synthesis:
CHO cells expressing human CB2R (Euroscreen) were plated at a density of 5000 cells per well in 384 well plates and incubated overnight at 37° C. After removing the media, the cells were treated with test compounds diluted in stimulation buffer containing 1 mM IBMX, 0.25% BSA and 10 uM Forskolin. The assay was incubated for 30 minutes at 37° C. Cells were lysed and the cAMP concentration was measured using DiscoverX -XS cAMP kit, following the manufacturer's protocol. In this setting, agonists will decrease forskolin induced production of cAMP while inverse agonists will further increase forskolin induced production of cAMP. EC50 of agonists were calculated as follows. The maximal amount of cAMP produced by forskolin compared to the level of cAMP inhibited by 1 uM CP55940 is defined as 100%. The EC50 value of each test compound was determined as the concentration at which 50% of the forskolin-stimulated cAMP synthesis was inhibited. Data was analyzed using a four-parameter logistic model. (Model 205 of XLfit 4.0).

T1 sequence (P34972 whole entry): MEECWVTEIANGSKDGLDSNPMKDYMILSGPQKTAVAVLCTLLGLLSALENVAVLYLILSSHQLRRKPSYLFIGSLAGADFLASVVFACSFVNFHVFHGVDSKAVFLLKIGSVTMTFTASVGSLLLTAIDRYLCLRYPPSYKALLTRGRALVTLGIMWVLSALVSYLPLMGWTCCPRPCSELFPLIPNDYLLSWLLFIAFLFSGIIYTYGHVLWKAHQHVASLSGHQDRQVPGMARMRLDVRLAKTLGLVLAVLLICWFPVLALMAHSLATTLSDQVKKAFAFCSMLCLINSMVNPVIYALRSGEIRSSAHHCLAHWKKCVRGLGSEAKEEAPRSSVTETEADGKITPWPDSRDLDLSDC

| SMILES | agonistic activity |
| --- | --- |
| CC(C)(C(=O)Nc1nsc(-c2ccccc2)n1)S(=O)(=O)c1ccc(C(F)(F)F)nc1 [2-methyl-N-(5-phenyl-1,2,4-thiadiazol-3-yl)-2-{[6-(trifluoromethyl)pyridin-3-yl]sulfonyl}propanamide] | agonistic activity |
| CC(C)(C(=O)Nc1cc(C(F)(F)F)ccn1)S(=O)(=O)c1ccc(C(F)(F)F)nc1 [2-Methyl-2-(6-trifluoromethyl-pyridine-3-sulfonyl)-N-(4-trifluoromethyl-pyridin-2-yl)-propionamide] | agonistic activity |
| CC(C)(C)c1csc(NC(=O)C(C)(C)S(=O)(=O)c2ccc(Cl)nc2)n1 [N-(4-tert-Butyl-thiazol-2-yl)-2-(6-chloro-pyridine-3-sulfonyl)-2-methyl-propionamide] | agonistic activity |
| O=C(Nc1cc(C(F)(F)F)ccn1)C1(S(=O)(=O)c2ccc(Cl)cc2)CC1 [1-(4-Chloro-benzenesulfonyl)-cyclopropanecarboxylic acid (4-trifluoromethyl-pyridin-2-yl)-amide] | agonistic activity |
| CCc1ccnc(NC(=O)C(C)(C)S(=O)(=O)c2ccc(C(F)(F)F)nc2)c1 [N-(4-ethylpyridin-2-yl)-2-methyl-2-{[6-(trifluoromethyl)pyridin-3-yl]sulfonyl}propanamide] | agonistic activity |
| CC(C)(C)c1cc(NC(=O)C(C)(C)S(=O)(=O)c2ccc(Cl)cc2)on1 [N-(3-tert-Butyl-isoxazol-5-yl)-2-(4-chloro-benzenesulfonyl)-2-methyl-propionamide] | agonistic activity |
| Cc1nc(NC(=O)C(C)(C)S(=O)(=O)c2ccc(Cl)cc2)sc1C [2-(4-Chloro-benzenesulfonyl)-N-(4,5-dimethyl-thiazol-2-yl)-2-methyl-propionamide] | agonistic activity |
| CC(C)(C(=O)Nc1nnc(C(F)(F)F)s1)S(=O)(=O)c1ccc(Cl)cc1 [2-(4-Chloro-benzenesulfonyl)-2-methyl-N-(5-trifluoromethyl-[1,3,4]thiadiazol-2-yl)-propionamide] | agonistic activity |
| CC(C)(C)c1cc(NC(=O)C(C)(C)S(=O)(=O)c2ccc(Br)cc2)no1 [2-(4-Bromo-benzenesulfonyl)-N-(5-tert-butyl-isoxazol-3-yl)-2-methyl-propionamide] | agonistic activity |
| Cc1nc(NC(=O)C(C)(C)S(=O)(=O)c2ccc(Cl)cc2)sc1C(C)(C)C [N-(5-tert-Butyl-4-methyl-thiazol-2-yl)-2-(4-chloro-benzenesulfonyl)-2-methyl-propionamide] | agonistic activity |
| CC(C)(C)c1cc(NC(=O)C(C)(C)S(=O)(=O)c2ccc(Cl)nc2)no1 [N-(5-tert-Butyl-isoxazol-3-yl)-2-(6-chloro-pyridine-3-sulfonyl)-2-methyl-propionamide] | agonistic activity |
| CC(C)(C)c1cc(NC(=O)C(C)(C)S(=O)(=O)c2cccnc2)no1 [N-(5-tert-Butyl-isoxazol-3-yl)-2-methyl-2-(pyridine-3-sulfonyl)-propionamide] | agonistic activity |
| CC(C)(C)c1cc(NC(=O)C(C)(C)S(=O)(=O)c2ccc(C(F)(F)F)nc2)[nH]n1 [N-(5-tert-Butyl-2H-pyrazol-3-yl)-2-methyl-2-(6-trifluoromethyl-pyridine-3-sulfonyl)-propionamide] | agonistic activity |
| Cn1nc(C(C)(C)C)cc1NC(=O)C(C)(C)S(=O)(=O)c1cccc(F)c1 [N-(5-tert-Butyl-2-methyl-2H-pyrazol-3-yl)-2-(3-fluoro-benzenesulfonyl)-2-methyl-propionamide] | agonistic activity |
| CC(C)(C(=O)Nc1ccc(C(F)(F)F)cn1)S(=O)(=O)c1ccc(Cl)cc1F [2-(4-Chloro-2-fluoro-benzenesulfonyl)-2-methyl-N-(5-trifluoromethyl-pyridin-2-yl)-propionamide] | agonistic activity |
| Cc1nc(NC(=O)C(C)(C)S(=O)(=O)c2ccc(C(F)(F)F)cc2)sc1C(C)(C)C [N-(5-tert-Butyl-4-methyl-thiazol-2-yl)-2-methyl-2-(4-trifluoromethyl-benzenesulfonyl)-propionamide] | agonistic activity |
| CC(C)(C(=O)Nc1nc(-c2ccccc2)cs1)S(=O)(=O)c1ccc(C(F)(F)F)nc1 [2-methyl-N-(4-phenyl-1,3-thiazol-2-yl)-2-{[6-(trifluoromethyl)pyridin-3-yl]sulfonyl}propanamide] | agonistic activity |
| CC(C)(C(=O)Nc1cnc2ccccc2c1)S(=O)(=O)c1ccc(Cl)cc1 [2-(4-Chloro-benzenesulfonyl)-2-methyl-N-quinolin-3-yl-propionamide] | agonistic activity |

| SMILES | agonistic activity |
| --- | --- |
| CC(C)(C(=O)Nc1nc(C2CC2)cs1)S(=O)(=O)c1ccc(Cl)cc1F [2-[(4-chloro-2-fluorophenyl)sulfonyl]-N-(4-cyclopropyl-1,3-thiazol-2-yl)-2-methylpropanamide] | agonistic activity |
| CC(C)(C(=O)Nc1ccc(C(F)(F)F)cc1F)S(=O)(=O)c1ccc(Cl)cc1 [2-[(4-chlorophenyl)sulfonyl]-N-[2-fluoro-4-(trifluoromethyl)phenyl]-2-methylpropanamide] | agonistic activity |
| CC(C)(C)c1cc(NC(=O)C(C)(C)S(=O)(=O)c2ccccc2F)no1 [N-(5-tert-Butyl-isoxazol-3-yl)-2-(2-fluoro-benzenesulfonyl)-2-methyl-propionamide] | agonistic activity |
| CC(C)(C(=O)Nc1nc(-c2ccccc2)cs1)S(=O)(=O)c1ccc(Cl)cc1F [2-[(4-chloro-2-fluorophenyl)sulfonyl]-2-methyl-N-(4-phenyl-1,3-thiazol-2-yl)propanamide] | agonistic activity |
| CC(C)(C(=O)Nc1cccc(C(F)(F)F)n1)S(=O)(=O)c1ccc(N2CCC2)nc1 [2-(6-Azetidin-1-yl-pyridine-3-sulfonyl)-2-methyl-N-(6-trifluoromethyl-pyridin-2-yl)-propionamide] | agonistic activity |
| Cc1ccnc(NC(=O)C(C)(C)S(=O)(=O)c2ccc(Cl)cc2)c1 [2-(4-Chloro-benzenesulfonyl)-2-methyl-N-(4-methyl-pyridin-2-yl)-propionamide] | agonistic activity |
| CC(C)(C(=O)Nc1ccc(C(F)(F)F)cn1)S(=O)(=O)c1cccc(F)c1 [2-(3-Fluoro-benzenesulfonyl)-2-methyl-N-(5-trifluoromethyl-pyridin-2-yl)-propionamide] | agonistic activity |
| CC(C)(C)c1cc(NC(=O)C2(S(=O)(=O)c3ccc(C(F)(F)F)cc3)CCOCC2)no1 [4-(4-Trifluoromethyl-benzenesulfonyl)-tetrahydro-pyran-4-carboxylic acid (5-tert-butyl-isoxazol-3-yl)-amide] | agonistic activity |
| CC(C)(C)c1cc(NC(=O)C2(S(=O)(=O)c3ccc(Cl)cc3)CC2)[nH]n1 [1-(4-Chloro-benzenesulfonyl)-cyclopropanecarboxylic acid (5-tert-butyl-2H-pyrazol-3-yl)-amide] | agonistic activity |
| CC(C)(C(=O)Nc1ccc(C(F)(F)F)cn1)S(=O)(=O)c1ccc(Cl)cc1 [2-(4-Chloro-benzenesulfonyl)-2-methyl-N-(5-trifluoromethyl-pyridin-2-yl)-propionamide] | agonistic activity |
| CC(C)(C(=O)Nc1ccc(-c2ccccc2)cn1)S(=O)(=O)c1ccc(Cl)cc1 [2-(4-Chloro-benzenesulfonyl)-2-methyl-N-(5-phenyl-pyridin-2-yl)-propionamide] | agonistic activity |
| O=C(Nc1ccc(C(F)(F)F)cn1)C1(S(=O)(=O)c2ccc(Cl)cc2)CC1 [1-(4-Chloro-benzenesulfonyl)-cyclopropanecarboxylic acid (5-trifluoromethyl-pyridin-2-yl)-amide] | agonistic activity |
| CC(C)(C(=O)Nc1cccc2ccccc12)S(=O)(=O)c1ccc(Cl)cc1F [2-[(4-chloro-2-fluorophenyl)sulfonyl]-2-methyl-N-1-naphthylpropanamide] | agonistic activity |
| CC(C)(C)c1ccccc1NC(=O)C(C)(C)S(=O)(=O)c1ccc(Cl)cc1 [N-(2-tert-Butyl-phenyl)-2-(4-chloro-benzenesulfonyl)-2-methyl-propionamide] | agonistic activity |
| CC(C)(C(=O)Nc1nc(-c2ccncc2)cs1)S(=O)(=O)c1ccc(Cl)cc1 [2-(4-Chloro-benzenesulfonyl)-2-methyl-N-(4-pyridin-4-yl-thiazol-2-yl)-propionamide] | agonistic activity |
| CC(C)(C(=O)Nc1ncc(-c2ccccc2)s1)S(=O)(=O)c1ccc(Cl)cc1 [2-(4-Chloro-benzenesulfonyl)-2-methyl-N-(5-phenyl-thiazol-2-yl)-propionamide] | agonistic activity |
| CC(C)(C(=O)Nc1cc(-c2ccccc2)on1)S(=O)(=O)c1ccc(Cl)cc1 [2-(4-Chloro-benzenesulfonyl)-2-methyl-N-(5-phenyl-isoxazol-3-yl)-propionamide] | agonistic activity |
| CC(C)(C)Cc1cc(NC(=O)C(C)(C)S(=O)(=O)c2ccc(Cl)cc2F)on1 [2-[(4-chloro-2-fluorophenyl)sulfonyl]-N-[3-(2,2-dimethylpropyl)isoxazol-5-yl]-2-methylpropanamide] | agonistic activity |
